# According to patent US8865700B2, “Collagen stimulators and their use in the treatment of skin” (Avon Products, Inc., priority 2012, dated 2014):
# Test system: Normal Human dermal fibroblasts
# Assay: Procollagen assay (Procollagen Type-I C-Peptide EIA) in conditioned media of treated fibroblasts
# Assay type: cell-based
# Details: 0.0005% compound, 48 hours, ELISA, p<0.05
# Description: Normal Human dermal fibroblasts were grown in DMEM (Mediatech; cat. #: 15-013-CV) containing 10% Fetal Bovine Serum (Perbio; cat. #: SH30070.03), Penicillin/Streptomycin (Mediatech, Cat #30-001-C1), L-Glutamine (Mediatech; cat. #: 25-005-CI) at 37° C. and 10% CO2. Cells were stripped of serum overnight, followed by treatment with the compound of Formula I(b) (0.0005%) or vehicle (DMSO), in the absence of serum for 48 hours.
# Reading was measured at 450 nm using a spectrophotometer.
# Human dermal fibroblasts treated with 0.0005% the compound of Formula I(b) for 48 hours were analyzed by ELISA for expression levels of pro-collagen. […] All values are statistically significant at p<0.05.
structure (smiles),measurement,setting,value
N#Cc1cccc(CN2CCNC(=O)CC2c2nccs2)c1 (centres unmarked) [Formula I(b)],Procollagen,"serum-free, relative to vehicle (DMSO) control = 100%, 450 nm",146%
same,"pro-collagen expression level relative to control, vehicle treated cells",,significant increase
